Data from patent US12662451B2, “Chemical compounds and uses thereof” (GLAXOSMITHKLINE INTELLECTUAL PROPERTY (NO.4) LIMITED, priority 2023, dated 2026).
Where a name gives a salt, the structure may show the parent alone. Read-outs that look alike come from different tables or passages of the source.

What was measured:
[1] = molecular target: T1, recombinant full-length WRN protein (1-1432) (Homo sapiens, UniProt Q14191); test: WRN unwinding activity, fluorogenic 384-well assay (Example A); type: biochemical; conditions: WRN unwinding activity, 4 hr; Table 2; read-out: 4 hr UNW pIC50 (converted)
T1 construct: recombinant full-length WRN protein (1-1432)
T1 sequence (Q14191 whole entry): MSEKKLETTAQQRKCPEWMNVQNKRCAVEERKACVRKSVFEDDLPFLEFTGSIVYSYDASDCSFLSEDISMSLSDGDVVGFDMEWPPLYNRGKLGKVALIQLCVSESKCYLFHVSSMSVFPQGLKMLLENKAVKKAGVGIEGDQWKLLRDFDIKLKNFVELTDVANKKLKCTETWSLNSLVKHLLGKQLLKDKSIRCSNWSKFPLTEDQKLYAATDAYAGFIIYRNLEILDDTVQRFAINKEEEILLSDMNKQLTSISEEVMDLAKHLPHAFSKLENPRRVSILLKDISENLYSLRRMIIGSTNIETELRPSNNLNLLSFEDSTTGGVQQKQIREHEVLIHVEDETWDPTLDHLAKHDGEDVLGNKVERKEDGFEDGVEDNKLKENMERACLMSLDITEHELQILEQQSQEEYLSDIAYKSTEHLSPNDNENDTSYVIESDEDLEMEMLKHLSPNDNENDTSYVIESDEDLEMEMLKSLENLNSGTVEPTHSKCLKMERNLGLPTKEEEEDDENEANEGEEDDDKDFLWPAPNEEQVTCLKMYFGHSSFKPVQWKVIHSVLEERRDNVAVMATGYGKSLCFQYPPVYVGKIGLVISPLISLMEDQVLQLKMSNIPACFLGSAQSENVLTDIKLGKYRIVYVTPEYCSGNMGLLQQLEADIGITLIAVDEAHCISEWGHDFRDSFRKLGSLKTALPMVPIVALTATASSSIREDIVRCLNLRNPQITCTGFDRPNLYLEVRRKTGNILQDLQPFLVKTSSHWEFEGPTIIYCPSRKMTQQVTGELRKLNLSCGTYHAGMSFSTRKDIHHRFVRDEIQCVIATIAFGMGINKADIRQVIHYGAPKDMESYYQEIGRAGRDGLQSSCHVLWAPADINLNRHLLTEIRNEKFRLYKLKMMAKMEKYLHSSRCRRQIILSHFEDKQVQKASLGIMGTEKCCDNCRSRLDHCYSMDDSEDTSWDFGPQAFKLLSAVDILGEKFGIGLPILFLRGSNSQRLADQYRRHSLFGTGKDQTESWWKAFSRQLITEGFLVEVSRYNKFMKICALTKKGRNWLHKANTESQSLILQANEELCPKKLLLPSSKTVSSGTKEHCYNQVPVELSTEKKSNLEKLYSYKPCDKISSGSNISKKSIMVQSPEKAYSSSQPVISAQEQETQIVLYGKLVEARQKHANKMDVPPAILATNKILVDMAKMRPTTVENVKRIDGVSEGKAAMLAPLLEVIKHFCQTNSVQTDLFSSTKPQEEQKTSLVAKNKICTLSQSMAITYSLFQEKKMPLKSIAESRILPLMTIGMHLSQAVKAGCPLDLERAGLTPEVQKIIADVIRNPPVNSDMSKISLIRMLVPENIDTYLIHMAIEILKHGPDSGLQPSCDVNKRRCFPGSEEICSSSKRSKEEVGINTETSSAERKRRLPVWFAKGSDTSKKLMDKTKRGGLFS
Procedure, shortened: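 200 pM enzyme (2× stock) preincubated with compound 4 h at ambient temperature, then 200 μM ATP and 12 nM quenched TAMRA-labelled dsDNA (2× stocks) added for 60 min; EDTA-quenched. Buffer 25 mM Tris pH 8.0, 5 mM NaCl, 2 mM MgCl2. Fluorescence at 525/598 nm; pIC50 from four-parameter fit.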

[2] = Cell culture media unbound percentage and stability by rapid equilibrium dialysis (Example C); type: in vitro ADME; conditions: bovine, cell assay medium (RPMI-1640 with 10% fetal bovine serum), pH 7.4, rapid equilibrium dialysis, 4 hours at 37° C., read-out: Cell Culture Media Binding (% unbound)
Experimental: (§1) It was observed that the compounds of the present disclosure are bound to cell assay media to various degrees, which would affect the cellular potency analysis in Example B. To measure free drug potency, concentrations used in the cell assays were corrected with the measured free fraction determined in the cell assay media. Compounds were incubated in a rapid equilibrium dialysis (RED) at a nominal concentration of 1 μM, using a dialysis buffer of phosphate-buffered saline (PBS, 100 mM sodium phosphate+150 mM sodium chloride, pH 7.4). The test compound was spiked into the medium. Aliquots were added to the donor wells of a RED plate in triplicate, and blank PBS was added to each receiver well, at volumes recommended by the manufacturer. Plates were incubated with shaking at 200 rpm for 4 hours at 37° C. The resultant samples were analysed by LC-MS/MS using a specific and sensitive method. Results were reported as analyte:internal standard peak area ratios (PARs), and the percent unbound was calculated with the following equation:
[formula] where D=the matrix dilution factor (D=1 for media); Apparent Fu=Crec/Cdon; Crec=PAR in receiver samples; Cdon=PAR in donor samples. Percent stability was calculated by:
(§2) [formula] where Cfinal=PAR in the T=240 minute sample; Cinitial=PAR in the T=0 minute sample. Cell culture media unbound percentage and calculated free drug potency of selected compounds along with their measured potency from Example B are shown in Table 3.

[3] = tested on: SW48 human colorectal cancer cells; test: Calculated free drug potency in SW48 cell assay, corrected with media free fraction (Example C); type: cell-based; conditions: Homo sapiens, SW48, SW48 pCC50 corrected with measured free fraction in cell assay media
Experimental: as §1, §2

[4] = tested on: SW48 human colorectal cancer cells (MSI-H cancer cells); test: SW48 cell viability, CellTiter-Glo, 120 hours (Example B); conditions: Homo sapiens
[5] = SW48, 120 h, read-out: SW48 pCC50, SW48 cell viability, 120 hours incubation (converted), Table 2
[6] = SW48, read-out: SW48 pCC50, measured potency from Example B, as repeated in Table 3 (converted)

Structure (SMILES)	IC50 [1]	fraction unbound at 4 h, 1 µM [2]	CC50 [3]	CC50 [4, 5]	CC50 [4, 6]
Cc1nc2cc(S(=O)(=O)N(C)c3ccc([C@H]4CCC[C@@H](C(=O)Nc5ccc(C(F)(F)F)cc5F)[C@@H]4C(=O)O)cc3)cc(CCN)c2n1C [Example 289, (1R,2S,6R)-2-(4-((7-(2-aminoethyl)-N,1,2-trimethyl-1H-benzo[d]imidazole)-5-sulfonamido)phenyl)-6-((2-fluoro-4-(trifluoromethyl)phenyl)carbamoyl)cyclohexane-1-carboxylic acid, hydrochloride]	1.58 nM	0.412	4070 nM	10000 nM	
Cc1nc2cc(S(=O)(=O)N(C)c3ccc([C@H]4C[C@@H](NCC(F)(F)F)C[C@@H](C(=O)Nc5ccc(C(F)(F)F)cc5F)[C@@H]4C(=O)O)cc3)ccc2n1C (stereo in doubt) [Example 334, rel-(1R,2R,4R,6S)-2-((2-fluoro-4-(trifluoromethyl)phenyl)carbamoyl)-4-((2,2,2-trifluoroethyl)amino)-6-(4-((N,1,2-trimethyl-1H-benzo[d]imidazole)-5-sulfonamido)phenyl)cyclohexane-1-carboxylic acid]	1.58 nM	0.183	45.7 nM	251 nM	251 nM
Cc1nc2cc(S(=O)(=O)N(C)c3ccc([C@H]4C[C@@H](OC5CCC5)C[C@@H](C(=O)Nc5ccc(C(F)(F)F)cc5F)[C@@H]4C(=O)O)cc3)ccc2n1C (stereo in doubt) [Example 325, rel-(1R,2R,4R,6S)-4-cyclobutoxy-2-((2-fluoro-4-(trifluoromethyl)phenyl)carbamoyl)-6-(4-((N,1,2-trimethyl-1H-benzo[d]imidazole)-5-sulfonamido)phenyl)cyclohexane-1-carboxylic acid]	2 nM	0.0862	17.4 nM	200 nM	200 nM
Cc1nc2cc(S(=O)(=O)N(C)c3ccc([C@H]4C[C@@H](N5CCCC(F)(F)C5)C[C@@H](C(=O)Nc5ccc(C(F)(F)F)cc5F)[C@@H]4C(=O)O)cc3)ccc2n1C (relative stereo) [Example 353, rel-(1R,2R,4R,6S)-4-(3,3-difluoropiperidin-1-yl)-2-((2-fluoro-4-(trifluoromethyl)phenyl)carbamoyl)-6-(4-((N,1,2-trimethyl-1H-benzo[d]imidazole)-5-sulfonamido)phenyl)cyclohexane-1-carboxylic acid]	1.58 nM	0.113	4.47 nM	39.8 nM	39.8 nM
Cc1nc2cc(S(=O)(=O)N(C)c3ccc([C@H]4CCC[C@@H](C(=O)Nc5ccc(C(F)(F)F)cc5F)[C@@H]4C(=O)O)cc3)cc(CCN(C)C)c2n1C [Example 290, (1R,2S,6R)-2-(4-((7-(2-(dimethylamino)ethyl)-N,1,2-trimethyl-1H-benzo[d]imidazole)-5-sulfonamido)phenyl)-6-((2-fluoro-4-(trifluoromethyl)phenyl)carbamoyl)cyclohexane-1-carboxylic acid]	1.58 nM	0.411	162 nM	398 nM	398 nM
CN(c1ccc([C@H]2CCC[C@@H](C(=O)Nc3ccc(C(F)(F)F)cc3F)[C@@H]2C(=O)O)cc1)S(=O)(=O)c1ccc2c(c1)OCC2 [Example 112, (1R,2R,6S)-2-((2-fluoro-4-(trifluoromethyl)phenyl)carbamoyl)-6-(4-((N-methyl-2,3-dihydrobenzofuran)-6-sulfonamido)phenyl)cyclohexane-1-carboxylic acid]	2.51 nM	0.0405	32.4 nM	794 nM	794 nM
CN(c1ccc([C@H]2CCC[C@@H](C(=O)Nc3ccc(C(F)(F)F)cc3F)[C@@H]2C(=O)O)cc1)S(=O)(=O)c1cccc([C@@H]2CCCNC2)c1 [Example 262, (1R,2R,6S)-2-((2-fluoro-4-(trifluoromethyl)phenyl)carbamoyl)-6-(4-((N-methyl-3-((S)-piperidin-3-yl)phenyl)sulfonamido)phenyl)cyclohexane-1-carboxylic acid]	1.58 nM	0.241	240 nM	1000 nM	1000 nM
Cc1nc2cc(S(=O)(=O)N(C)c3ccc([C@H]4C[C@@H](OCC5(C)COC5)C[C@@H](C(=O)Nc5ccc(C(F)(F)F)cc5F)[C@@H]4C(=O)O)cc3)ccc2n1C (stereo in doubt) [Example 367, rel-(1R,2R,4R,6S)-2-((2-fluoro-4-(trifluoromethyl)phenyl)carbamoyl)-4-((3-methyloxetan-3-yl)methoxy)-6-(4-((N,1,2-trimethyl-1H-benzo[d]imidazole)-5-sulfonamido)phenyl)cyclohexane-1-carboxylic acid]	1.58 nM	0.145	11.5 nM	79.4 nM	79.4 nM

Continued, in another order:

IC50 [1]	fraction unbound at 4 h, 1 µM [2]	Structure (SMILES)	CC50 [3]	CC50 [4, 5]	CC50 [4, 6]
3.16 nM	0.0195	CN(C)c1nc2cc(S(=O)(=O)N(C)c3ccc([C@H]4CCC[C@@H](C(=O)Nc5ccc(C(F)(F)F)cc5F)[C@@H]4C(=O)O)cc3)ccc2n1C [Example 121, (1R,2S,6R)-2-(4-((2-(dimethylamino)-N, 1-dimethyl-1H-benzo[d]imidazole)-5-sulfonamido)phenyl)-6-((2-fluoro-4-(trifluoromethyl)phenyl)carbamoyl)cyclohexane-1-carboxylic acid]	6.17 nM	316 nM	316 nM
1 nM	0.226	CN(c1ccc([C@H]2CCC[C@@H](C(=O)Nc3ccc(C(F)(F)F)cc3F)[C@@H]2C(=O)O)cc1)S(=O)(=O)c1ccc2c(c1)nc(CCN)n2C [Example 267, (1R,2S,6R)-2-(4-((2-(2-aminoethyl)-N,1-dimethyl-1H-benzo[d]imidazole)-5-sulfonamido)phenyl)-6-((2-fluoro-4-(trifluoromethyl)phenyl)carbamoyl)cyclohexane-1-carboxylic acid hydrochloride]	178 nM	794 nM	794 nM
1.58 nM	0.0717	Cc1nc2cc(S(=O)(=O)N(C)c3ccc([C@H]4CCC[C@@H](C(=O)Nc5ccc(C(C)C)cc5)[C@@H]4C(=O)O)cc3)ccc2n1C [Example 396, (1R,2R,6S)-2-((4-isopropylphenyl)carbamoyl)-6-(4-((N,1,2-trimethyl-1H-benzo[d]imidazole)-5-sulfonamido)phenyl)cyclohexane-1-carboxylic acid]	45.7 nM	631 nM	631 nM
1.26 nM	0.0355	Cc1nc2cc(S(=O)(=O)Nc3ccc([C@@H]4CCC[C@H](C(=O)Nc5ccc(C(F)(F)F)cc5F)[C@H]4C(=O)O)cc3)ccc2n1C (single isomer, unassigned) [Example 224]	17.8 nM	501 nM	501 nM
20 nM	0.0143	Cc1nc2cc(S(=O)(=O)N(C)c3ccc([C@H]4CCC[C@@H](C(=O)Nc5ccc(C(F)(F)F)cc5F)[C@@H]4C(=O)O)cc3)cc(Cl)c2n1C [Example 129, (1R,2S,6R)-2-(4-((7-chloro-N,1,2-trimethyl-1H-benzo[d]imidazole)-5-sulfonamido)phenyl)-6-((2-fluoro-4-(trifluoromethyl)phenyl)carbamoyl)cyclohexane-1-carboxylic acid]	9.12 nM	631 nM	631 nM
